# Experimental data: ChEMBL document CHEMBL4422652, “Synthesis and biological evaluation of novel oleanolic acid analogues as potential α-glucosidase inhibitors” (Eur J Med Chem, 2019)
# Active and inactive are the calls of the source. No cut-off for these calls is given here.
# Assays:
# [1] = Inhibition of baker's yeast alpha-glucosidase using phenol-alphaD-glycopyranoside as substrate preincubated for 10 mins followed by substrate addition and measured after 30 mins; design: species or system Saccharomyces cerevisiae
# [2] = Inhibition of baker's yeast alpha-glucosidase using PNPG as substrate after 10 mins by spectrophotometric method; design: species or system Saccharomyces cerevisiae
# [3] = tested on: Saccharomyces cerevisiae; assay: Non-competitive inhibition of baker's yeast alpha-glucosidase assessed as Km for substrate using varying levels of phenol-alphaD-glycopyranoside as substrate preincubated for 10 mins followed by substrate addition and measured after 30 mins by double reciprocal plot analysis
# [4] = Non-competitive inhibition of baker's yeast alpha-glucosidase using varying levels of phenol-alphaD-glycopyranoside as substrate preincubated for 10 mins followed by substrate addition and measured after 30 mins by double reciprocal plot analysis; design: species or system Saccharomyces cerevisiae
# [5] = tested on: NIH3T3; assay: Cytotoxicity against mouse 3T3 cells assessed as growth inhibition measured after 48 hrs by MTT assay; type: cell-based; settings: NIH3T3, 48 h
# [6] = tested on: Mus musculus; assay: Hypoglycemic activity in streptozocin-induced diabetic Kunming mouse assessed as reduction in blood glucose level at 50 mg/kg, po measured at 9 hrs post dose; type: functional, organism-based
# [7] = tested on: Mus musculus; assay: Hypoglycemic activity in streptozocin-induced diabetic Kunming mouse assessed as reduction in blood glucose level at 50 mg/kg, po measured at 2 hrs post dose; type: functional, organism-based
# [8] = tested on: Mus musculus; assay: Hypoglycemic activity in streptozocin-induced diabetic Kunming mouse assessed as blood glucose level at 50 mg/kg, po administered once daily for 18 days measured on day 1 post dose (reference value: 18.86 +/- 0.7 mM); type: functional
# [9] = tested on: Mus musculus; assay: Hypoglycemic activity in streptozocin-induced diabetic Kunming mouse assessed as blood glucose level at 50 mg/kg, po administered once daily for 18 days measured on day 6 post dose (reference value: 22.31 +/- 1.05 mM); type: functional
# [10] = tested on: Mus musculus; assay: Hypoglycemic activity in streptozocin-induced diabetic Kunming mouse assessed as blood glucose level at 50 mg/kg, po administered once daily for 18 days measured on day 12 post dose (reference value: 23.09 +/- 1.45 mM); type: functional
# [11] = tested on: Mus musculus; assay: Hypoglycemic activity in streptozocin-induced diabetic Kunming mouse assessed as blood glucose level at 50 mg/kg, po administered once daily for 18 days measured on day 12 post dose (reference value: 23.27 +/- 1.03 mM); type: functional
# [12] = Toxicity in streptozocin-induced diabetic Kunming mouse assessed as effect on body weight at 50 mg/kg, po administered once daily for 18 days measured every 6 days starting from day 1 during compound dosing; type: organism-based; settings: in vivo
# [13] = tested on: Mus musculus; assay: Hypoglycemic activity in streptozocin-induced diabetic Kunming mouse assessed as reduction in blood glucose level at 50 mg/kg, po treated 30 mins prior to glucose challenge and measured up to 210 mins by OGTT; type: functional, organism-based
# [14] = tested on: Mus musculus; assay: Hypoglycemic activity in streptozocin-induced diabetic Kunming mouse assessed as reduction in blood glucose AUC at 50 mg/kg, po treated 30 mins prior to glucose challenge and measured up to 210 mins by OGTT; type: functional, organism-based
# [15] = tested on: Mus musculus; assay: Hypoglycemic activity in streptozocin-induced diabetic Kunming mouse assessed as reduction in blood glucose level at 50 mg/kg, po measured at 7 hrs post dose; type: functional, organism-based
# [16] = Inhibition of baker's yeast alpha-glucosidase using PNPG as substrate preincubated for 15 mins followed by substrate addition and measured after 5 mins by spectrophotometric method; design: species or system Saccharomyces cerevisiae
smiles,measurement,setting,value
CC1(C)CC[C@@]23CC[C@]4(C)[C@](OC2=O)([C@H](F)C[C@@H]2[C@@]5(C)C/C(=C\c6ccc(-c7ccccn7)cc6)C(=O)C(C)(C)[C@@H]5CC[C@]24C)[C@@H]3C1,IC50,[1],3.67 µM
CC1(C)CC[C@@]23CC[C@]4(C)[C@](OC2=O)([C@H](F)C[C@@H]2[C@@]5(C)C/C(=C\c6ccc(C(F)(F)F)cc6)C(=O)C(C)(C)[C@@H]5CC[C@]24C)[C@@H]3C1,IC50,[1],1.51 µM
same,IC50,[2],1.9 µM
CC1(C)CC[C@@]23CC[C@]4(C)[C@](OC2=O)([C@H](F)C[C@@H]2[C@@]5(C)C/C(=C\c6ccc(Cl)cn6)C(=O)C(C)(C)[C@@H]5CC[C@]24C)[C@@H]3C1,IC50,[1],0.72 µM
same,Km,[3],120 µM
same,Ki,[4],1.19 µM
same,IC50,[5],> 300 µM
same,Activity,[6],Active
same,Activity,[7],Active
same,Activity,[8],17.45 mM
same,Activity,[9],20.51 mM
same,Activity,[10],18.29 mM
same,Activity,[11],13.13 mM
same,Activity,[12],Non-Toxic
same,Activity,[13],Active
same,Activity,[14],Active
Cc1cccc(/C=C2\C[C@]3(C)[C@H]4C[C@@H](F)[C@]56OC(=O)[C@@]7(CCC(C)(C)C[C@H]75)CC[C@@]6(C)[C@]4(C)CC[C@H]3C(C)(C)C2=O)c1,IC50,[1],2.16 µM
CC1(C)CC[C@@]23CC[C@]4(C)[C@](OC2=O)([C@H](F)C[C@@H]2[C@@]5(C)CC[C@H](O)C(C)(C)[C@@H]5CC[C@]24C)[C@@H]3C1,IC50,[1],8.12 µM
COc1ccc(/C=C2\C[C@]3(C)[C@H]4C[C@@H](F)[C@]56OC(=O)[C@@]7(CCC(C)(C)C[C@H]75)CC[C@@]6(C)[C@]4(C)CC[C@H]3C(C)(C)C2=O)cc1,IC50,[1],0.33 µM
same,Km,[3],120 µM
same,Ki,[4],0.52 µM
same,IC50,[5],> 300 µM
same,Activity,[15],Active
same,Activity,[8],18.61 mM
same,Activity,[9],19.96 mM
same,Activity,[10],17.49 mM
same,Activity,[11],13.74 mM
same,Activity,[12],Non-Toxic
same,Activity,[13],Active
same,Activity,[14],Active
COc1ccc(/C=C2\C[C@]3(C)[C@H]4C[C@@H](F)[C@]56OC(=O)[C@@]7(CCC(C)(C)C[C@H]75)CC[C@@]6(C)[C@]4(C)CC[C@H]3C(C)(C)C2=O)c(OC)c1,IC50,[1],1.92 µM
CC1(C)CC[C@@]23CC[C@]4(C)[C@](OC2=O)([C@H](F)C[C@@H]2[C@@]5(C)C/C(=C\c6ccccc6Cl)C(=O)C(C)(C)[C@@H]5CC[C@]24C)[C@@H]3C1,IC50,[1],1.54 µM
CC1(C)CC[C@]2(C(=O)O)CC[C@]3(C)C(=CC[C@@H]4[C@@]5(C)CC[C@H](O)C(C)(C)[C@@H]5CC[C@]43C)[C@@H]2C1 [OLEANOLIC_ACID],IC50,[1],2.41 µM
Cc1ccccc1/C=C1\C[C@]2(C)[C@H]3C[C@@H](F)[C@]45OC(=O)[C@@]6(CCC(C)(C)C[C@H]64)CC[C@@]5(C)[C@]3(C)CC[C@H]2C(C)(C)C1=O,IC50,[1],1.58 µM
CC1(C)CC[C@@]23CC[C@]4(C)[C@](OC2=O)([C@H](F)C[C@@H]2[C@@]5(C)C/C(=C\c6cccc(Br)c6)C(=O)C(C)(C)[C@@H]5CC[C@]24C)[C@@H]3C1,IC50,[1],1.86 µM
CC1(C)CC[C@@]23CC[C@]4(C)[C@](OC2=O)([C@H](F)C[C@@H]2[C@@]5(C)C/C(=C\c6ccc(Br)cc6)C(=O)C(C)(C)[C@@H]5CC[C@]24C)[C@@H]3C1,IC50,[1],1.06 µM
CC1(C)CC[C@]2(C(=O)Oc3ccc(C(=O)/C=C/c4ccc(Br)cc4)cc3)CC[C@]3(C)C(=CC[C@@H]4[C@@]5(C)CCC(=O)C(C)(C)[C@@H]5CC[C@]43C)[C@@H]2C1,IC50,[16],2.2 µM
CC1(C)CC[C@@]23CC[C@]4(C)[C@](OC2=O)([C@H](F)C[C@@H]2[C@@]5(C)C/C(=C\c6ccc(F)cc6)C(=O)C(C)(C)[C@@H]5CC[C@]24C)[C@@H]3C1,IC50,[1],1.51 µM
CC1(C)CC[C@@]23CC[C@]4(C)[C@](OC2=O)([C@H](F)C[C@@H]2[C@@]5(C)C/C(=C\c6ccccn6)C(=O)C(C)(C)[C@@H]5CC[C@]24C)[C@@H]3C1,IC50,[1],2.67 µM
Cc1ccc(/C=C2\C[C@]3(C)[C@H]4C[C@@H](F)[C@]56OC(=O)[C@@]7(CCC(C)(C)C[C@H]75)CC[C@@]6(C)[C@]4(C)CC[C@H]3C(C)(C)C2=O)cc1,IC50,[1],1.29 µM
CC1(C)CC[C@@]23CC[C@]4(C)[C@](OC2=O)([C@H](F)C[C@@H]2[C@@]5(C)C/C(=C\c6ccccc6)C(=O)C(C)(C)[C@@H]5CC[C@]24C)[C@@H]3C1,IC50,[1],3.43 µM
CC1(C)CC[C@@]23CC[C@]4(C)[C@](OC2=O)([C@H](F)C[C@@H]2[C@@]5(C)C/C(=C\c6ccc(Cl)cc6)C(=O)C(C)(C)[C@@H]5CC[C@]24C)[C@@H]3C1,IC50,[1],0.69 µM
same,Km,[3],120 µM
same,Ki,[4],0.88 µM
same,IC50,[5],> 300 µM
same,Activity,[6],Active
same,Activity,[8],19.59 mM
same,Activity,[9],23.59 mM
same,Activity,[10],20.25 mM
same,Activity,[11],16.22 mM
same,Activity,[12],Non-Toxic
same,Activity,[13],Active
same,Activity,[14],Active
C[C@@H]1C[C@@H]([C@H](O)CC2CC(=O)NC(=O)C2)C(=O)[C@@H](C)C1 [CYCLOHEXIMIDE],IC50,[5],0.25 µM
CC1(C)CC[C@@]23CC[C@]4(C)[C@](OC2=O)([C@H](F)C[C@@H]2[C@@]5(C)C/C(=C\c6cccc(Cl)c6)C(=O)C(C)(C)[C@@H]5CC[C@]24C)[C@@H]3C1,IC50,[1],0.98 µM
same,Km,[3],120 µM
same,Ki,[4],1.49 µM
same,IC50,[5],> 300 µM
same,Activity,[6],Active
same,Activity,[7],Active
same,Activity,[8],20.66 mM
same,Activity,[9],24.39 mM
same,Activity,[10],23.51 mM
same,Activity,[11],17.52 mM
same,Activity,[12],Non-Toxic
same,Activity,[13],Active
same,Activity,[14],Active
CC1(C)CC[C@@]23CC[C@]4(C)[C@](OC2=O)([C@H](F)C[C@@H]2[C@@]5(C)C/C(=C\c6ccccc6F)C(=O)C(C)(C)[C@@H]5CC[C@]24C)[C@@H]3C1,IC50,[1],1.74 µM
C[C@H]1O[C@H](O[C@H]2[C@H](O)[C@@H](O)[C@@H](O[C@H]3[C@H](O)[C@@H](O)C(O)O[C@@H]3CO)O[C@@H]2CO)[C@H](O)[C@@H](O)[C@@H]1N[C@H]1C=C(CO)[C@@H](O)[C@H](O)[C@H]1O (stereo partly drawn) [ACARBOSE],IC50,[1],579 µM
same,Activity,[8],19.14 mM
same,Activity,[9],22.44 mM
same,Activity,[10],20.41 mM
same,Activity,[11],15.48 mM
CC1(C)CC[C@@]23CC[C@]4(C)[C@](OC2=O)([C@H](F)C[C@@H]2[C@@]5(C)CCC(=O)C(C)(C)[C@@H]5CC[C@]24C)[C@@H]3C1,IC50,[1],16.7 µM
COc1cccc(/C=C2\C[C@]3(C)[C@H]4C[C@@H](F)[C@]56OC(=O)[C@@]7(CCC(C)(C)C[C@H]75)CC[C@@]6(C)[C@]4(C)CC[C@H]3C(C)(C)C2=O)c1,IC50,[1],3.29 µM
COc1ccccc1/C=C1\C[C@]2(C)[C@H]3C[C@@H](F)[C@]45OC(=O)[C@@]6(CCC(C)(C)C[C@H]64)CC[C@@]5(C)[C@]3(C)CC[C@H]2C(C)(C)C1=O,IC50,[1],2.74 µM
CC1(C)CC[C@@]23CC[C@]4(C)[C@](OC2=O)([C@H](F)C[C@@H]2[C@@]5(C)C/C(=C\c6ccc(C(F)(F)F)nc6)C(=O)C(C)(C)[C@@H]5CC[C@]24C)[C@@H]3C1,IC50,[1],1.86 µM
CC1(C)CC[C@@]23CC[C@]4(C)[C@](OC2=O)([C@H](F)C[C@@H]2[C@@]5(C)C/C(=C\c6cccc(F)c6)C(=O)C(C)(C)[C@@H]5CC[C@]24C)[C@@H]3C1,IC50,[1],2.79 µM
CC1(C)CC[C@@]23CC[C@]4(C)[C@](OC2=O)([C@H](F)C[C@@H]2[C@@]5(C)C/C(=C\c6ccc(Br)cc6F)C(=O)C(C)(C)[C@@H]5CC[C@]24C)[C@@H]3C1,IC50,[1],1.17 µM
CC1(C)CC[C@@]23CC[C@]4(C)[C@](OC2=O)([C@H](F)C[C@@H]2[C@@]5(C)C/C(=C\c6ccc(-n7cncn7)cc6)C(=O)C(C)(C)[C@@H]5CC[C@]24C)[C@@H]3C1,IC50,[1],3.18 µM
COc1ncc(F)cc1/C=C1\C[C@]2(C)[C@H]3C[C@@H](F)[C@]45OC(=O)[C@@]6(CCC(C)(C)C[C@H]64)CC[C@@]5(C)[C@]3(C)CC[C@H]2C(C)(C)C1=O,IC50,[1],2.05 µM
CC1(C)CC[C@@]23CC[C@]4(C)[C@](OC2=O)([C@H](F)C[C@@H]2[C@@]5(C)C/C(=C\c6ccccc6Br)C(=O)C(C)(C)[C@@H]5CC[C@]24C)[C@@H]3C1,IC50,[1],2.51 µM
CC1(C)CC[C@@]23CC[C@]4(C)[C@](OC2=O)([C@H](F)C[C@@H]2[C@@]5(C)C/C(=C\c6cnccn6)C(=O)C(C)(C)[C@@H]5CC[C@]24C)[C@@H]3C1,IC50,[1],3.14 µM
